From patent publication US20260001854A1, “CONJUGATE COMPOUND COMPRISING 13-CIS-RETINOIC ACID AND ASCORBIC ACID” (Mastery Biotech CO., LTD., priority 2023, published 2026)

Experiments:
[1] = MTT cell viability (cytotoxicity) assay, A549; format: cell-based, human; conditions: human, A549 cells
Experimental: (§1) Cells were cultured in indicated growth medium with 10% FBS and were maintained in a humidified incubator at 37° C. containing 5% CO2. Formula A2 compound was weighted and dissolved in DMSO/EtOH mixture solvent of 1/4 (v/v) ratio to a final concentration of 200 mM at the day of treatment. One day before treatment, cells at log-phase of growth were harvested, counted, and seeded in a 96-well plate at a density of 5×10^3 cells/[…]/well. After cultivation overnight, assumed wells were gently added with […] of fresh media prepared with the serial concentration from 40 to 1000 μM to bring the working concentration from 20 to 500 μM subsequently. The control plate without Formula A2 was carried out as the same procedure as above but […] of fresh media prepared with the equal solvent volume added. All plates were mixed gently and incubated for next 24 hours.
(§2) At the day of cell viability detection, tested wells were added […] of MTT working solution and incubated at 37° C. for 3 hours. Spectrophotometric absorbance readings were recorded at wavelength of 540 nm. Readings from blank wells (wells contains only cell culture medium without cells) and negative control wells (wells with cell and culture medium without Formula A2 and solvent treatment) were recorded and used for calibration. After all readings of OD540 subtracted the blank value, the percentage of cell viability were calculated using the following formula: […]
(§3) The concentration of Compound A that inhibited cell survival to 50% (IC50) was determined by an online tool “Quest Graph™ IC50 Calculator.” AAT Bioquest, Inc., 26 June. 2024, www.aatbio.com/tools/ic50-calculator.

A549 = assay: MTT cell viability (cytotoxicity) assay, A549; format: cell-based, human; conditions: Homo sapiens; A549 cell line, estimated from cell viability values with Quest Graph IC50 Calculator; read-out: IC50 (concentration that inhibited cell survival to 50%)
Experimental: as §1, §2, §3

[2] = MTT cell viability (cytotoxicity) assay, PANC-1; format: cell-based; conditions: human, PANC-1 cells, mean of 6 wells
Experimental: as §1, §2, §3

[3] = MTT cell viability (cytotoxicity) assay, Caco-2; format: cell-based; conditions: human, mean of 6 wells
Experimental: as §1, §2, §3

[4] = MTT cell viability (cytotoxicity) assay, A549; format: cell-based; conditions: human, A549 cells

## CC1=C(/C=C/C(C)=C/C=C/C(C)=C\C(=O)OC2=C(O)[C@@H]([C@@H](O)CO)OC2=O)C(C)(C)CCC1 [Formula A1]
[1]; Formula A1 20 μM, 24 hours, MTT, mean of 6 wells
  viability at 24 h, 20 μM: 102%
[1]; Formula A1 100 μM, 24 hours, MTT, mean of 6 wells
  viability at 24 h, 100 μM: 100%
[1]; Formula A1 150 μM, 24 hours, MTT, mean of 6 wells
  viability at 24 h, 150 μM: 80%
[1]; Formula A1 180 μM, 24 hours, MTT, mean of 6 wells
  viability at 24 h, 180 μM: 29%
[1]; Formula A1 230 μM, 24 hours, MTT, mean of 6 wells
  viability at 24 h, 230 μM: 63%
[1]; Formula A1 253 μM, 24 hours, MTT, mean of 6 wells
  viability at 24 h, 253 μM: 28%
[1]; Formula A1 500 μM, 24 hours, MTT, mean of 6 wells
  viability at 24 h, 500 µM: 11%
A549
  IC50: 197 µM
[2]; 20 μM
  viability at 24 h, 20 μM: 69%
[2]; 50 μM
  viability at 24 h, 50 μM: 69%
[2]; 100 μM
  viability at 24 h, 100 μM: 54%
[2]; 150 μM
  viability at 24 h, 150 μM: 50%
[2]; 180 μM
  viability at 24 h, 180 μM: 16%
[2]; 230 μM
  viability at 24 h, 230 μM: 17%
[2]; 253 μM
  viability at 24 h, 253 μM: 19%
[2]; 500 μM
  viability at 24 h, 500 µM: 22%
[3]; 200 μM
  viability at 24 h, 200 µM: 91%
[3]; 300 μM
  viability at 24 h, 300 µM: 58%
[3]; 400 μM
  viability at 24 h, 400 µM: 33%
[3]; 500 μM
  viability at 24 h, 500 µM: 24%
[4]; Formula A1 50 μM, 24 hours, MTT, mean of 6 wells
  viability at 24 h, 50 μM: 94%

## CC1=C(/C=C/C(C)=C/C=C/C(C)=C\C(=O)O)C(C)(C)CCC1 [13-cis retinoic acid, (2Z,4E,6E,8E)-3,7-dimethyl-9-(2,6,6-trimethylcyclohex-1-en-1-yl)nona-2,4,6,8-tetraenoic acid, reference compound]
[1]; 13-cis RA 30 μM
  viability at 24 h, 30 μM: 75%
[1]; 13-cis RA 60 μM
  viability at 24 h, 60 μM: 73%
[1]; 13-cis RA 120 μM
  viability at 24 h, 120 μM: 57%
[1]; 13-cis RA 240 μM
  viability at 24 h, 240 μM: 50%
[1]; 13-cis RA 480 μM
  viability at 24 h, 480 μM: 50%
A549
  IC50: 518 µM
[4]; 13-cis RA 7.5 μM
  viability at 24 h, 7.5 μM: 95%
[4]; 13-cis RA 15 μM
  viability at 24 h, 15 μM: 78%
[4]; 13-cis RA 960 μM
  viability at 24 h, 960 μM: 51%
